# Test results published in patent US10047050B2, “3,4-di-substituted pyridine compound, methods of using and compositions comprising the same” (ARDEA BIOSCIENCES, INC., priority 2011, dated 2018).
# Values joined by “and” are separate entries in the source; they are usually repeats but may differ in a detail not shown here. Equal values may be shown once.
# System: serum uric acid
# Experiment: Single-dose Phase I clinical trial, serum uric acid (sUA) 0-72 hours post-dose
# Assay type: in vivo, human
# Details: for % sUA change (from baseline) / % sUA reduction (from baseline): individual subjects 3-8; for % sUA change (from baseline), Mean (3-8) / Absolute sUA concentration, Mean (3-8) / % sUA reduction (from baseline), Mean (3-8): mean of subjects 3-8
# Procedure: A Phase 1, Randomized, Double-Blind, Placebo-Controlled Study to Evaluate Safety, Tolerability, Pharmacokinetics and Preliminary Food Effect of Single Doses of a URAT1 Inhibitor, in Healthy Adult Male Volunteers.
# To assess safety, tolerability, pharmacokinetics and uricosuric effects after oral administration as single doses of a tablet formulation and the effect of food on bioavailability.
# Subjects receive a single, oral dose of active or placebo, at the following doses:
# Group 4: 20 mg (fasted) [sentinel dosing];
# 48 subjects in 6 dose groups, 8 subjects/group, are randomized 3:1 to receive active (6/group) or placebo (2/group). All study procedures are the same regardless of whether subject receives active or placebo. The total duration of subject participation, including screening period, is ˜2-4 weeks, and the total volume of blood collected from each subject during the entire study <500 mL, (less than typically collected during a volunteer blood donation).
# 5 mg and 20 mg, active and placebo, tablets packaged in 35 count HDPE bottles, stored at controlled room temperature (15-30° C.). Placebo tablets are designed to match the active tablets—identical size, form, taste, and color, and containing the same excipients. 2 mg was dosed as an oral solution.
# Subjects dosed on the morning of Day 1 with ˜240 mL of room temp water.
# Fasted: subjects are dosed after overnight fast >10 hours and remain fasted until >4 hours post-dose.
# Fed: subjects fast overnight for >10 hours, then are dosed 30 mins after completing standard moderate fat breakfast (no high fructose corn syrup).
# Serum samples are collected at:
# PD samples are frozen (−20° C.) and stored; all samples from a given subject assayed in a single analytical run.
# [1] = Group 1, 2 mg single oral dose, fasted, 0 h (baseline)
# [2] = Group 1, 2 mg single oral dose, fasted, 6 h post-dose
# [3] = Group 1, 2 mg single oral dose, fasted, 12 h post-dose
# [4] = Group 1, 2 mg single oral dose, fasted, 24 h post-dose
# [5] = Group 1, 2 mg single oral dose, fasted, 30 h post-dose
# [6] = Group 1, 2 mg single oral dose, fasted, 36 h post-dose
# [7] = Group 1, 2 mg single oral dose, fasted, 48 h post-dose
# [8] = Group 1, 2 mg single oral dose, fasted, 54 h post-dose
# [9] = Group 1, 2 mg single oral dose, fasted, 60 h post-dose
# [10] = Group 1, 2 mg single oral dose, fasted, 72 h post-dose
# [11] = Group 2, 5 mg single oral dose, fasted, 0 h (baseline)
# [12] = Group 2, 5 mg single oral dose, fasted, 6 h post-dose
# [13] = Group 2, 5 mg single oral dose, fasted, 12 h post-dose
# [14] = Group 2, 5 mg single oral dose, fasted, 24 h post-dose
# [15] = Group 2, 5 mg single oral dose, fasted, 30 h post-dose
# [16] = Group 2, 5 mg single oral dose, fasted, 36 h post-dose
# [17] = Group 2, 5 mg single oral dose, fasted, 48 h post-dose
# [18] = Group 2, 5 mg single oral dose, fasted, 54 h post-dose
# [19] = Group 2, 5 mg single oral dose, fasted, 60 h post-dose
# [20] = Group 2, 5 mg single oral dose, fasted, 72 h post-dose
# [21] = Group 3, 5 mg single oral dose, fed, 0 h (baseline)
# [22] = Group 3, 5 mg single oral dose, fed, 6 h post-dose
# [23] = Group 3, 5 mg single oral dose, fed, 12 h post-dose
# [24] = Group 3, 5 mg single oral dose, fed, 24 h post-dose
# [25] = Group 3, 5 mg single oral dose, fed, 30 h post-dose
# [26] = Group 3, 5 mg single oral dose, fed, 36 h post-dose
# [27] = Group 3, 5 mg single oral dose, fed, 48 h post-dose
structure (smiles),measurement,setting,value
CC(C)(Sc1ccncc1-c1ccc(C#N)c2ccccc12)C(=O)O [2-((3-(4-cyanonaphthalen-1-yl)pyridin-4-yl)thio)-2-methylpropanoic acid],% sUA change (from baseline),[1],0%
same,"% sUA change (from baseline), Mean (3-8)",[1],0%
same,"Absolute sUA concentration, Mean (3-8)",[1],6.5 mg/dL
same,% sUA change (from baseline),[2],−30.4% and −47.5% and −35.5% and −37.8% and −38.2% and −33.3%
same,"% sUA change (from baseline), Mean (3-8)",[2],−10.2%
same,"Absolute sUA concentration, Mean (3-8)",[2],5.8 mg/dL
same,% sUA change (from baseline),[3],−44.6% (2×) and −52.5% and −48.4% and −43.4% and −42.3%
same,"% sUA change (from baseline), Mean (3-8)",[3],−15.6%
same,"Absolute sUA concentration, Mean (3-8)",[3],5.5 mg/dL
same,% sUA change (from baseline),[4],−41.1% and −44.1% and −43.5% and −40.5% and −43.4% and −46.2%
same,"% sUA change (from baseline), Mean (3-8)",[4],−8.1%
same,"Absolute sUA concentration, Mean (3-8)",[4],6.0 mg/dL
same,% sUA change (from baseline),[5],−46.4% and −52.5% and −43.5% and −44.6% and −44.7% and −52.6%
same,"% sUA change (from baseline), Mean (3-8)",[5],−13.5%
same,"Absolute sUA concentration, Mean (3-8)",[5],5.6 mg/dL
same,% sUA change (from baseline),[6],−48.2% and −52.5% and −45.2% and −45.9% and −46.1% and −52.6%
same,"% sUA change (from baseline), Mean (3-8)",[6],−18.8%
same,"Absolute sUA concentration, Mean (3-8)",[6],5.3 mg/dL
same,% sUA change (from baseline),[7],−32.1% and −42.4% and −38.7% and −36.5% and −35.5% and −48.7%
same,"% sUA change (from baseline), Mean (3-8)",[7],−13.3%
same,"Absolute sUA concentration, Mean (3-8)",[7],5.6 mg/dL
same,% sUA change (from baseline),[8],−33.9% and −45.8% and −37.1% and −27% and −32.9% and −48.7%
same,"% sUA change (from baseline), Mean (3-8)",[8],−19.3%
same,"Absolute sUA concentration, Mean (3-8)",[8],5.3 mg/dL
same,% sUA change (from baseline),[9],−35.7% and −45.8% and −35.5% and −29.7% and −32.9% and −46.2%
same,"% sUA change (from baseline), Mean (3-8)",[9],−21.3%
same,"Absolute sUA concentration, Mean (3-8)",[9],5.1 mg/dL
same,% sUA change (from baseline),[10],−23.2% and −30.5% and −16.1% and −14.9% and −15.8% and −28.2%
same,"% sUA change (from baseline), Mean (3-8)",[10],−15.5%
same,"Absolute sUA concentration, Mean (3-8)",[10],5.5 mg/dL
same,% sUA reduction (from baseline),[11],0%
same,"% sUA reduction (from baseline), Mean (3-8)",[11],0%
same,"Absolute sUA concentration, Mean (3-8)",[11],6.5 mg/dL
same,% sUA reduction (from baseline),[12],−24.3% and −13.9% and −14.3% and −13.1% and −27.9% and −22.0%
same,"% sUA reduction (from baseline), Mean (3-8)",[12],−19.3%
same,"Absolute sUA concentration, Mean (3-8)",[12],5.3 mg/dL
same,% sUA reduction (from baseline),[13],−36.5% and −16.7% and −19.0% and −13.1% and −37.7% and −32.2%
same,"% sUA reduction (from baseline), Mean (3-8)",[13],−25.9%
same,"Absolute sUA concentration, Mean (3-8)",[13],4.8 mg/dL
same,% sUA reduction (from baseline),[14],−25.7% and −11.1% (2×) and 0.0% and −26.2% and −16.9%
same,"% sUA reduction (from baseline), Mean (3-8)",[14],−15.2%
same,"Absolute sUA concentration, Mean (3-8)",[14],5.5 mg/dL
same,% sUA reduction (from baseline),[15],−29.7% and −16.7% and −17.5% and −8.2% and −36.1% and −28.8%
same,"% sUA reduction (from baseline), Mean (3-8)",[15],−22.8%
same,"Absolute sUA concentration, Mean (3-8)",[15],5.0 mg/dL
same,% sUA reduction (from baseline),[16],−32.4% and −23.6% and −14.3% and −14.8% and −41.0% and −32.2%
same,"% sUA reduction (from baseline), Mean (3-8)",[16],−26.4%
same,"Absolute sUA concentration, Mean (3-8)",[16],4.8 mg/dL
same,% sUA reduction (from baseline),[17],−27.0% and −11.1% and −9.5% and −11.5% and −31.1% and −20.3%
same,"% sUA reduction (from baseline), Mean (3-8)",[17],−18.4%
same,"Absolute sUA concentration, Mean (3-8)",[17],5.3 mg/dL
same,% sUA reduction (from baseline),[18],−31.1% and −18.1% and −15.9% and −16.4% and −32.8% and −28.8%
same,"% sUA reduction (from baseline), Mean (3-8)",[18],−23.9%
same,"Absolute sUA concentration, Mean (3-8)",[18],5.0 mg/dL
same,% sUA reduction (from baseline),[19],−28.4% and −22.2% and −20.6% and −21.3% and −32.8% and −28.8%
same,"% sUA reduction (from baseline), Mean (3-8)",[19],−25.7%
same,"Absolute sUA concentration, Mean (3-8)",[19],4.8 mg/dL
same,% sUA reduction (from baseline),[20],−21.6% and −15.3% and −12.7% and −13.1% and −26.2% and −23.7%
same,"% sUA reduction (from baseline), Mean (3-8)",[20],−18.8%
same,"Absolute sUA concentration, Mean (3-8)",[20],5.3 mg/dL
same,% sUA reduction (from baseline),[21],0%
same,"% sUA reduction (from baseline), Mean (3-8)",[21],0%
same,"Absolute sUA concentration, Mean (3-8)",[21],6.0 mg/dL
same,% sUA reduction (from baseline),[22],−36.2% and −31.8% and −25.0% and −22.8% and −30.0%
same,"% sUA reduction (from baseline), Mean (3-8)",[22],−29.2%
same,"Absolute sUA concentration, Mean (3-8)",[22],4.1 mg/dL
same,% sUA reduction (from baseline),[23],−40.6% and −37.9% and −29.2% and −25.0% and −22.8%
same,"% sUA reduction (from baseline), Mean (3-8)",[23],−32.2%
same,"Absolute sUA concentration, Mean (3-8)",[23],4.0 mg/dL
same,"% sUA reduction (from baseline), Mean (3-8)",[24],−17.2%
same,"Absolute sUA concentration, Mean (3-8)",[24],4.9 mg/dL
same,"% sUA reduction (from baseline), Mean (3-8)",[25],−25.6%
same,"Absolute sUA concentration, Mean (3-8)",[25],4.4 mg/dL
same,"% sUA reduction (from baseline), Mean (3-8)",[26],−29.1%
same,"Absolute sUA concentration, Mean (3-8)",[26],4.2 mg/dL
same,% sUA reduction (from baseline),[27],−31.9% and −30.3% and −23.1% and −23.3% and −14.0% and −27.5%
same,"% sUA reduction (from baseline), Mean (3-8)",[27],−25.0%
